Results: the NIST ThermoML archive (doi:10.1021/acs.jced.6b00269)
Numbers after ± are expanded uncertainties.

Conditions: for viscosity / mass density: 101.33 kPa, Liquid; for viscosity: Cone and plate viscometry; for Glass transition temperature: DSC; for mass density: Vibrating tube method

Molecule `CC[P+](CC)(CC)COCCOC.Cc1ncc([N+](=O)[O-])[n-]1` has a viscosity (278.15 K) of 567 ± 45 mPa·s, a viscosity (283.15 K) of 381 ± 29 mPa·s and a viscosity (288.15 K) of 264 ± 19 mPa·s. For the same molecule, the viscosity (293.15 K) was 189 ± 13 mPa·s, the viscosity (298.15 K) was 140 ± 10 mPa·s and the viscosity (303.15 K) was 106 ± 7 mPa·s. For the same molecule, the viscosity (308.15 K) was 83 ± 6 mPa·s, the viscosity (313.15 K) was 65 ± 4 mPa·s and the viscosity (318.15 K) was 53 ± 4 mPa·s. The Glass transition temperature was -75 ± 2 °C.
For `CCCCCCCCCCCCCC[P+](CCCCCC)(CCCCCC)CCCCCC.N#Cc1nc[n-]c1C#N` [trihexyl(tetradecyl)phosphonium 4,5-dicyanoimidazolide], the viscosity (278.15 K) was 2490 ± 240 mPa·s, the viscosity (283.15 K) was 1630 ± 150 mPa·s and the mass density (283.15 K) was 928.9 ± 4.7 kg/m3. It also gave a viscosity (288.15 K) of 1090 ± 100 mPa·s, a mass density (288.15 K) of 925.7 ± 4.7 kg/m3 and a viscosity (293.15 K) of 754 ± 63 mPa·s. The mass density (293.15 K) was 922.6 ± 4.7 kg/m3, the mass density (295.15 K) was 921.5 ± 4.7 kg/m3 and the viscosity (298.15 K) was 535 ± 43 mPa·s. The mass density (298.15 K) was 919.7 ± 4.7 kg/m3, the viscosity (303.15 K) was 391 ± 30 mPa·s and the mass density (303.15 K) was 916.8 ± 4.6 kg/m3. It also gave a viscosity (308.15 K) of 291 ± 21 mPa·s, a mass density (308.15 K) of 913.9 ± 4.6 kg/m3 and a viscosity (313.15 K) of 220 ± 16 mPa·s. The mass density (313.15 K) was 911 ± 4.6 kg/m3, the viscosity (318.15 K) was 171 ± 12 mPa·s and the mass density (318.15 K) was 908.1 ± 4.6 kg/m3. For the same molecule, the viscosity (323.15 K) was 135 ± 9 mPa·s, the mass density (323.15 K) was 905.2 ± 4.5 kg/m3 and the viscosity (328.15 K) was 108 ± 7 mPa·s. For the same molecule, the mass density (328.15 K) was 902.4 ± 4.5 kg/m3, the viscosity (333.15 K) was 88 ± 6 mPa·s and the mass density (333.15 K) was 899.6 ± 4.5 kg/m3. The viscosity (338.15 K) was 73 ± 5 mPa·s, the mass density (338.15 K) was 896.7 ± 4.5 kg/m3 and the mass density (343.15 K) was 893.9 ± 4.5 kg/m3. For the same molecule, the mass density (348.15 K) was 891 ± 4.4 kg/m3, the mass density (353.15 K) was 888.2 ± 4.4 kg/m3 and the Glass transition temperature was -78 ± 2 °C.
Work on `CCCCCCCCCC[P+](CC)(CC)CC.O=[N+]([O-])c1cn[n-]c1` [decyltriethylphosphonium 4-nitropyrazolide] yielded a viscosity (278.15 K) of 1620 ± 150 mPa·s, a viscosity (283.15 K) of 1030 ± 90 mPa·s and a mass density (283.15 K) of 1020 ± 5.6 kg/m3. The viscosity (288.15 K) was 678 ± 56 mPa·s, the mass density (288.15 K) was 1017 ± 5.6 kg/m3 and the viscosity (293.15 K) was 461 ± 36 mPa·s. For the same molecule, the mass density (293.15 K) was 1013.9 ± 5.6 kg/m3, the mass density (295.15 K) was 1012.7 ± 5.5 kg/m3 and the viscosity (298.15 K) was 325 ± 24 mPa·s. The mass density (298.15 K) was 1010.9 ± 5.5 kg/m3, the viscosity (303.15 K) was 236 ± 17 mPa·s and the mass density (303.15 K) was 1007.9 ± 5.5 kg/m3. It also gave a viscosity (308.15 K) of 175 ± 12 mPa·s, a mass density (308.15 K) of 1004.9 ± 5.5 kg/m3 and a viscosity (313.15 K) of 133 ± 9 mPa·s. For the same molecule, the mass density (313.15 K) was 1002 ± 5.4 kg/m3, the viscosity (318.15 K) was 104 ± 7 mPa·s and the mass density (318.15 K) was 999.1 ± 5.4 kg/m3. The viscosity (323.15 K) was 82 ± 5 mPa·s, the mass density (323.15 K) was 996.2 ± 5.4 kg/m3 and the viscosity (328.15 K) was 66 ± 4 mPa·s. It also gave a mass density (328.15 K) of 993.3 ± 5.3 kg/m3, a viscosity (333.15 K) of 54 ± 4 mPa·s and a mass density (333.15 K) of 990.4 ± 5.3 kg/m3. For the same molecule, the mass density (338.15 K) was 987.5 ± 5.3 kg/m3, the mass density (343.15 K) was 984.6 ± 5.2 kg/m3 and the mass density (348.15 K) was 981.7 ± 5.2 kg/m3. The mass density (353.15 K) was 978.8 ± 5.2 kg/m3, the Normal melting temperature (Crystal, DTA) was 11 ± 2 °C and the Glass transition temperature was -71 ± 2 °C.
Work on `CCC[n+]1ccn(C)c1C.O=[N+]([O-])c1cn[n-]c1` [1,2-dimethyl-3-propylimidazolium 4-nitropyrazolide] yielded a viscosity (278.15 K) of 9610 ± 1100 mPa·s, a viscosity (283.15 K) of 4500 ± 500 mPa·s and a mass density (283.15 K) of 1193 ± 7.7 kg/m3. It also gave a viscosity (288.15 K) of 2270 ± 230 mPa·s, a mass density (288.15 K) of 1189.4 ± 7.7 kg/m3 and a viscosity (293.15 K) of 1240 ± 110 mPa·s. It also gave a mass density (293.15 K) of 1185.6 ± 7.6 kg/m3, a mass density (295.15 K) of 1184.3 ± 7.6 kg/m3 and a viscosity (298.15 K) of 722 ± 61 mPa·s. The mass density (298.15 K) was 1182.2 ± 7.6 kg/m3, the viscosity (303.15 K) was 447 ± 35 mPa·s and the mass density (303.15 K) was 1178.9 ± 7.6 kg/m3. The viscosity (308.15 K) was 294 ± 22 mPa·s, the mass density (308.15 K) was 1175.5 ± 7.5 kg/m3 and the viscosity (313.15 K) was 200 ± 10 mPa·s. For the same molecule, the mass density (313.15 K) was 1172.2 ± 7.5 kg/m3, the viscosity (318.15 K) was 143 ± 10 mPa·s and the mass density (318.15 K) was 1168.9 ± 7.4 kg/m3. For the same molecule, the viscosity (323.15 K) was 106 ± 7 mPa·s, the mass density (323.15 K) was 1165.7 ± 7.4 kg/m3 and the viscosity (328.15 K) was 81 ± 5 mPa·s. The mass density (328.15 K) was 1162.5 ± 7.3 kg/m3, the viscosity (333.15 K) was 65 ± 4 mPa·s and the mass density (333.15 K) was 1159.3 ± 7.3 kg/m3. For the same molecule, the viscosity (338.15 K) was 53 ± 4 mPa·s, the mass density (338.15 K) was 1156.1 ± 7.3 kg/m3 and the mass density (343.15 K) was 1152.8 ± 7.2 kg/m3. The mass density (348.15 K) was 1149.6 ± 7.2 kg/m3, the mass density (353.15 K) was 1146.4 ± 7.1 kg/m3 and the Glass transition temperature was -50 ± 2 °C.
Molecule `CCCCCCCC[P+](CC)(CC)CC.Cc1ncc([N+](=O)[O-])[n-]1` [triethyloctylphosphonium 2-methyl-5-nitroimidazolide] has a viscosity (278.15 K) of 3720 ± 390 mPa·s, a viscosity (283.15 K) of 2280 ± 220 mPa·s and a mass density (283.15 K) of 1037.8 ± 5.8 kg/m3. It also gave a viscosity (288.15 K) of 1440 ± 130 mPa·s, a mass density (288.15 K) of 1034.6 ± 5.8 kg/m3 and a viscosity (293.15 K) of 940 ± 81 mPa·s. The mass density (293.15 K) was 1031.5 ± 5.8 kg/m3, the mass density (295.15 K) was 1030.3 ± 5.7 kg/m3 and the viscosity (298.15 K) was 637 ± 52 mPa·s. For the same molecule, the mass density (298.15 K) was 1028.6 ± 5.7 kg/m3, the viscosity (303.15 K) was 446 ± 35 mPa·s and the mass density (303.15 K) was 1025.6 ± 5.7 kg/m3. For the same molecule, the viscosity (308.15 K) was 321 ± 24 mPa·s, the mass density (308.15 K) was 1022.7 ± 5.7 kg/m3 and the viscosity (313.15 K) was 237 ± 17 mPa·s. The mass density (313.15 K) was 1019.8 ± 5.6 kg/m3, the viscosity (318.15 K) was 179 ± 13 mPa·s and the mass density (318.15 K) was 1016.9 ± 5.6 kg/m3. For the same molecule, the viscosity (323.15 K) was 138 ± 9 mPa·s, the mass density (323.15 K) was 1014.1 ± 5.6 kg/m3 and the viscosity (328.15 K) was 109 ± 7 mPa·s. The mass density (328.15 K) was 1011.2 ± 5.5 kg/m3, the viscosity (333.15 K) was 80 ± 5 mPa·s and the mass density (333.15 K) was 1008.4 ± 5.5 kg/m3. For the same molecule, the mass density (338.15 K) was 1005.6 ± 5.5 kg/m3, the mass density (343.15 K) was 1002.7 ± 5.4 kg/m3 and the mass density (348.15 K) was 999.9 ± 5.4 kg/m3. The mass density (353.15 K) was 997.1 ± 5.4 kg/m3 and the Glass transition temperature was -67 ± 2 °C.
Molecule `CC[P+](CC)(CC)COCCOC.O=S(=O)([N-]S(=O)(=O)C(F)(F)F)C(F)(F)F` has a viscosity (278.15 K) of 84 ± 6 mPa·s, a viscosity (283.15 K) of 65 ± 4 mPa·s and a mass density (283.15 K) of 1373.9 ± 10 kg/m3. For the same molecule, the viscosity (288.15 K) was 51 ± 3 mPa·s, the mass density (288.15 K) was 1369.4 ± 10 kg/m3 and the mass density (293.15 K) was 1364.8 ± 10 kg/m3. It also gave a mass density (295.15 K) of 1363 ± 10 kg/m3, a mass density (298.15 K) of 1360.3 ± 10 kg/m3 and a mass density (303.15 K) of 1355.7 ± 10 kg/m3. For the same molecule, the mass density (308.15 K) was 1351.2 ± 10 kg/m3, the mass density (313.15 K) was 1346.8 ± 9.9 kg/m3 and the mass density (318.15 K) was 1342.3 ± 9.8 kg/m3. It also gave a mass density (323.15 K) of 1337.9 ± 9.8 kg/m3, a mass density (328.15 K) of 1333.4 ± 9.7 kg/m3 and a mass density (333.15 K) of 1329 ± 9.6 kg/m3. It also gave a mass density (338.15 K) of 1324.6 ± 9.6 kg/m3, a mass density (343.15 K) of 1320.2 ± 9.5 kg/m3 and a mass density (348.15 K) of 1315.8 ± 9.4 kg/m3. The mass density (353.15 K) was 1311.5 ± 9.4 kg/m3.
